Experiments:
[1] = biological target: T1, Glutamate receptor ionotropic, AMPA (Rattus norvegicus, UniProt P19490+P19491+P19492+P19493)
Description: Binding affinity in rat brain cortical membranes by the displacement of [3H]AMPA at Ionotropic glutamate receptor AMPA

Mus musculus [2] = species: Mus musculus; assay: Anticonvulsant activity tested in mouse; type: functional
[3] = biological target: T2, Glutamate receptor ionotropic, NMDA 1 (Rattus norvegicus, UniProt P35439); assay: Binding affinity in rat brain cortical membranes by the displacement of [3H]- DCKA at N-methyl-D-aspartate glutamate receptor 1; type: cell membranes
[4] = biological target: Glutamate receptor ionotropic, kainate; assay: Displacement of [3H]kainate from rat brain cortical membrane Ionotropic glutamate receptor kainate
[5] = Partition coefficient determined using octanol versus pH 7.4 buffer; type: physicochemical; details: octanol/pH 7.4 buffer
[6] = biological target: Glutamate receptor ionotropic, AMPA (Rattus norvegicus) (UniProt P19491+P19492+P19493+P19490); assay: Inhibition of Ionotropic glutamate receptor AMPA was measured in oocytes expressing rat cerebral cortex poly (A)+ RNA; type: functional, cell-based; details: Oocyte
[7] = biological target: Glutamate receptor ionotropic, NMDA 1 (Rattus norvegicus) (UniProt P35439); assay: Inhibition of N-methyl-D-aspartate glutamate receptor 1 was measured in oocytes expressing the cloned rat NMDA receptor subunit combination NR1A/2C; type: functional, cell-based; details: Oocyte
Mus musculus [8] = assay: Antinociceptive activity of tail flick test in mice, when administarted intrathecally; type: functional
Mus musculus [9] = species: Mus musculus; assay: Mouse maximum electroshock induced test seizure test in mice; type: functional
Glutamate NMDA receptor = assay: Displacement of [3H]DCKA at N-methyl-D-aspartate glutamate receptor 1; type: protein-complex assay, Rattus norvegicus
Mus musculus [10] = assay: Antinociceptive activity in mouse tail flick test, when administered intrathecally; type: functional
[11] = biological target: T1, Glutamate receptor ionotropic, AMPA; assay: Inhibition of binding of [3H]AMPA to Ionotropic glutamate receptor AMPA in rat brain membrane; type: cell membranes
[12] = biological target: T2, Glutamate receptor ionotropic, NMDA 1; assay: Inhibition of binding of [3H]DCKA to N-methyl-D-aspartate glutamate receptor 1 in rat brain membrane; type: cell membranes
[13] = biological target: Glutamate receptor ionotropic, NMDA 1 (Rattus norvegicus) (UniProt P35439); assay: Inhibition of NMDA/glycine receptors was measured in oocytes expressing the cloned rat NMDA receptor subunit combination NR1A/2C; type: functional, cell-based; details: Oocyte
[14] = The steady state selectivity index for inhibition of NMDA/glycine receptors was estimated by dividing Kb (AMPA) by Kb (NMDA/glycine)
Rattus norvegicus = assay: Reduction in cortical infarct volume when 20 mg/kg administarted Iv bolus followed by 14 mg/kg /h IV infusion for 22 hr in rat peramanent middle cerebral artery (MCA); type: functional

| Compound | IC50 [1] [µM] | IC50 [4] [µM] | logD [5] | IC50 (Glutamate NMDA receptor) [µM] | ED50 (Mus musculus [2]) [mg/kg] | other results |
| --- | --- | --- | --- | --- | --- | --- |
| O=C1Nc2cc(Cl)ccc2CC1[N+](=O)[O-] (configuration not stated) | – | – | – | – | – | Kb [6]: 9.2 µM; Kb [7]: 6.7 µM |
| NS(=O)(=O)c1cccc2c1c([N+](=O)[O-])cc1nc(O)c(O)nc12 [NBQX] | – | – | – | – | – | ED50 (Mus musculus [8]): 1.6 ug mouse-1; ED50 (Mus musculus [9]): 13.1 mg/kg |
| Cc1cnc2nc(O)c(O)nc2c1 | 67 | 49 | – | 41 | – | – |
| Oc1nc2cc(Br)cnc2nc1O | 32 | 16 | – | 4.1 | – | – |
| O=[N+]([O-])c1cnc2nc(O)c(O)nc2c1 | 3.3 | 4.4 | -0.97 | 1.1 | 4.5 | Kb [6]: 1.4 µM; Kb [7]: 0.43 µM |
| Oc1nc2cc(Cl)cnc2nc1O | 38 | 22 | – | 2.2 | – | – |
| Oc1nc2cc(C(F)(F)F)cnc2nc1O | 18 | 16 | – | 1.9 | – | – |
| O=[N+]([O-])c1ccc2nc(O)c(O)nc2c1 | 7.7 | 15 | – | 3.8 | – | – |
| O=[N+]([O-])c1ccc2cc(NS(=O)(=O)C(F)(F)F)c(O)nc2c1 | – | – | – | – | – | IC50 [11]: 0.63 µM; IC50 [12]: 0.62 µM |
| [O-][n+]1cc(Br)cc2nc(O)c(O)nc21 | 6.7 | 3.4 | -2.48 | – | 0.87 | IC50 [3]: 1 µM |
| [O-][n+]1cc(Cl)cc2nc(O)c(O)nc21 | 9.9 | 5.3 | -2.66 | 0.82 | 0.82 | Kb [13]: 0.63 µM; Selectivity index [14]: 6.2; Kb [6]: 3.9 µM; Reduction (Rattus norvegicus): 67% |

Now from value to molecule, other results behind:

| IC50 [1] [µM] | IC50 [4] [µM] | logD [5] | IC50 (Glutamate NMDA receptor) [µM] | Compound | ED50 (Mus musculus [2]) [mg/kg] | other results |
| --- | --- | --- | --- | --- | --- | --- |
| 5.9 | 7.5 | -2.35 | – | O=c1[nH]c2cc(C(F)(F)F)c[n+]([O-])c2[nH]c1=O | 6.3 | IC50 [3]: 1.05 µM |
| – | 0.36 | – | 0.37 | CN1CCc2c([N+](=O)[O-])cc3[nH]c(=O)c(=O)[nH]c3c2C1 | – | ED50 (Mus musculus [9]): 0.44 mg/kg |
| 14 | 11.9 | -2.91 | – | Cc1cc2[nH]c(=O)c(=O)[nH]c2[n+]([O-])c1 | 0.97 | IC50 [3]: 5.9 µM |
| 1.3 | 2.4 | -3.31 | – | O=c1[nH]c2cc([N+](=O)[O-])c[n+]([O-])c2[nH]c1=O | 4.6 | ED50 (Mus musculus [10]): 2.6 ug mouse-1; IC50 [3]: 0.69 µM |
| 52 | 52 | – | – | O=c1[nH]c2ccc(Cl)cc2[nH]c1=O | – | – |
| 1.5 | – | 0.21 | 0.0059 | O=c1[nH]c2cc(Cl)c(Cl)c([N+](=O)[O-])c2[nH]c1=O [LICOSTINEL] | 4 | – |
